Data reported in PubChem BioAssay AID2060486 (Molecular Pharmacology Branch, DTP, NCI, 2025).

Tested on: IGROV1 complex spheroids (HUVEC, MSC), viability % test/control
Experiment: Anticancer human tumor IGROV1 cell line growth inhibition [GQUAD];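 note: spheroids exposed to compounds for 7 days before readout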;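 for viability, T/C: 100% = DMSO vehicle control viability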
Conditions: for IC50: curve of first compound; for viability, T/C: stronger effect = lower value
Outline: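 Tumor cells were grown as complex spheroids with HUVEC endothelial cells and mesenchymal stem cells as stroma. G-quadruplex stabilizers were combined with targeted agents over half-log dilutions from near the clinical Cmax, or from 10 microM.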

How did the IC50 (second compound 0.0316 µM) turn out when `CC(C)n1c(=O)n(C)c2cnc3cc(F)c(-c4ccc(OCCCN5CCCCC5)nc4)cc3c21` + CN(C)c1ccc(Nc2c3ccc(NC(=O)CCN4CCCC4)cc3nc3cc(NC(=O)CCN4CCCC4)ccc23)cc1 was run?
The IC50 was 3.96 µM.

And the IC50 (second compound 0.1 µM)?
The IC50 was 3.78 µM.

And the IC50 (second compound 0.316 µM)?
Its IC50 is 4.03 µM.

And the IC50 (second compound 1 µM)?
Its IC50 is 1.5 µM.

What about the IC50 (second compound 3.16 µM) of the same molecule?
The IC50 was < 0.0316 µM.

And the IC50 (second compound 10 µM)?
The IC50 was < 0.0316 µM.

And the viability, T/C (second compound 0.0316 µM, first compound 0.0316 µM)?
Its viability, T/C is 91.8%.

And the viability, T/C (second compound 0.0316 µM, first compound 0.1 µM)?
The viability, T/C was 70.1%.

What about the viability, T/C (second compound 0.0316 µM, first compound 0.316 µM) of the same molecule?
The viability, T/C was 90.8%.

What about the viability, T/C (second compound 0.0316 µM, first compound 1 µM) of the same molecule?
Its viability, T/C is 72.2%.

What about the viability, T/C (second compound 0.0316 µM, first compound 3.16 µM) of the same molecule?
The viability, T/C was 59.2%.

And the viability, T/C (second compound 0.0316 µM, first compound 10 µM)?
The viability, T/C was 15.5%.

And the viability, T/C (second compound 0.1 µM, first compound 0.0316 µM)?
The viability, T/C was 93.3%.

What about the viability, T/C (second compound 0.1 µM, first compound 0.1 µM) of the same molecule?
The viability, T/C was 59.2%.

And the viability, T/C (second compound 0.1 µM, first compound 0.316 µM)?
The viability, T/C was 87.3%.

What about the viability, T/C (second compound 0.1 µM, first compound 1 µM) of the same molecule?
The viability, T/C was 72%.

And the viability, T/C (second compound 0.1 µM, first compound 3.16 µM)?
The viability, T/C was 55.2%.

What about the viability, T/C (second compound 0.1 µM, first compound 10 µM) of the same molecule?
The viability, T/C was 18%.

And the viability, T/C (second compound 0.316 µM, first compound 0.0316 µM)?
The viability, T/C was 86.1%.

And the viability, T/C (second compound 0.316 µM, first compound 0.1 µM)?
Its viability, T/C is 69.6%.

What about the viability, T/C (second compound 0.316 µM, first compound 0.316 µM) of the same molecule?
Its viability, T/C is 83.4%.

What about the viability, T/C (second compound 0.316 µM, first compound 1 µM) of the same molecule?
Its viability, T/C is 74.8%.

What about the viability, T/C (second compound 0.316 µM, first compound 3.16 µM) of the same molecule?
Its viability, T/C is 58.9%.

And the viability, T/C (second compound 0.316 µM, first compound 10 µM)?
Its viability, T/C is 16.7%.

What about the viability, T/C (second compound 1 µM, first compound 0.0316 µM) of the same molecule?
The viability, T/C was 54.6%.

And the viability, T/C (second compound 1 µM, first compound 0.1 µM)?
Its viability, T/C is 53.1%.

And the viability, T/C (second compound 1 µM, first compound 0.316 µM)?
Its viability, T/C is 58.9%.

And the viability, T/C (second compound 1 µM, first compound 1 µM)?
The viability, T/C was 55.6%.

And the viability, T/C (second compound 1 µM, first compound 3.16 µM)?
The viability, T/C was 40%.

And the viability, T/C (second compound 1 µM, first compound 10 µM)?
Its viability, T/C is 13%.

What about the viability, T/C (second compound 3.16 µM, first compound 0.0316 µM) of the same molecule?
The viability, T/C was 49.7%.

What about the viability, T/C (second compound 3.16 µM, first compound 0.1 µM) of the same molecule?
Its viability, T/C is 39.4%.

What about the viability, T/C (second compound 3.16 µM, first compound 0.316 µM) of the same molecule?
Its viability, T/C is 27%.

What about the viability, T/C (second compound 3.16 µM, first compound 1 µM) of the same molecule?
Its viability, T/C is 21.9%.

And the viability, T/C (second compound 3.16 µM, first compound 3.16 µM)?
Its viability, T/C is 19.8%.

What about the viability, T/C (second compound 3.16 µM, first compound 10 µM) of the same molecule?
The viability, T/C was 10.7%.

And the viability, T/C (second compound 10 µM, first compound 0.0316 µM)?
Its viability, T/C is 18.3%.

What about the viability, T/C (second compound 10 µM, first compound 0.1 µM) of the same molecule?
Its viability, T/C is 18.8%.

What about the viability, T/C (second compound 10 µM, first compound 0.316 µM) of the same molecule?
The viability, T/C was 11.4%.

What about the viability, T/C (second compound 10 µM, first compound 1 µM) of the same molecule?
Its viability, T/C is 10.5%.

And the viability, T/C (second compound 10 µM, first compound 3.16 µM)?
Its viability, T/C is 7.56%.

What about the viability, T/C (second compound 10 µM, first compound 10 µM) of the same molecule?
Its viability, T/C is 3.54%.
